# Columns and labels:
# GST-Bcl-2 protein = GST-Bcl-2 protein (Homo sapiens, UniProt P10415); test: Fluorescence polarization assay, competition with FAM-Bid peptide for Bcl-2; conditions: GST-Bcl-2 40 nM, FAM-Bid 5 nM, 4 hours of incubation, read-out: Bcl-2 binding constants
# Method: (§1) A Bid BH3 peptide (amino acids: 79-99: […]) having 21 amino acids was synthesized and marked with 6-carboxyfluorescein N-succinimidyl ester (FAM) as fluorescent tag (FAM-Bid) at the N-terminal. The reaction system used in the competitive binding experiment was GST-Bcl-2 protein (40 nM) or Mcl-1 protein, which was dissolved in the reaction buffer (100 mM K3PO4, pH 7.5; 100 μg/ml bovine γ albumin; 0.02% sodium azide) together with FAM-Bid polypeptide (5 nM). In a 96-well plate, 100 µL of the reaction system was added into each well. Then 1 μL different concentration of compound 13 mother solution to be detected dissolved in DMSO was added there into until the final concentration met the experimental design requirements. Meanwhile, two control groups were established, one with the reaction system only containing Bcl-2 or Mcl-1 and FAM-Bid (equivalent to 0% inhibition rate), the other with the reaction system only containing FAM-Bid peptide. After 4 hours of incubation, the 96-well plate was detected by enzyme-labelled meter. The fluorescent polarization value (mP) was tested at […]. Ki value was deduced according to calculation formula.
# (§2) The BH3 analogous degrees of other 12 compounds were detected by using the experimental method as described above.
# Mcl-1 protein = Mcl-1 protein (Homo sapiens, UniProt Q07820); test: Fluorescence polarization assay, competition with FAM-Bid peptide for Mcl-1; conditions: FAM-Bid 5 nM, 4 hours of incubation, read-out: Mcl-1 binding constants
# Method: as §1, §2
# [1] = target: T1, interaction between Bcl-2 and Bax (Homo sapiens, UniProt P10415); test: Intracellular FRET, Bcl-2-CFP/Bax-YFP in Hela cells; type: cell-based; conditions: for Time (time period after which the interaction between Bcl-2 and Bax was interfered): at the concentration given
# T1 construct: expressed in transfected cells; host or cells: Hela cells
# How it was run: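 Hela cells transfected with Bcl-2-CFP and/or Bax-YFP plasmids, then treated with compound in DMSO at 2, 5, 10 and 15 μM for 24 h, or at 40 μM for 3, 6 and 24 h. FRET taken as the 527/475 nm emission ratio at 433 nm excitation, with singly transfected controls set to 1.0. Viability checked by MTT.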
# [2] = tested on: BAX shift towards the chondriosome; test: Co-localization between Bax protein and chondriosome, Bax-YFP in MCF-7 cells; type: cell-based; conditions: for Doses (concentration at which the compound drove the BAX to shift towards the chondriosome): Bax-YFP/Mito Tracker Red; for Time (time period after which BAX shifted towards the chondriosome): at the concentration given
# How it was run: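 MCF-7 cells transfected with Bax-YFP plasmid; 24 h later treated with 10 μM compound for 6 h, then stained 10 min with 50 nM MitoTracker Red CMXRos. Dual-channel laser confocal imaging; Bax mitochondrial localization read as green/red overlap (orange).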
# MCF-7 cells = test: Cytotoxicity by MTT, cells without plasmid transfection; type: cell-based; conditions: Homo sapiens, MCF7; MCF-7, MTT, 48 hours; read-out: IC50 value in untransfected cells
# How it was run: (§3)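 MCF-7 cells transfected with 3 μg BAX/BAK interfering plasmid by calcium phosphate, knockdown checked by Western; untransfected cells run in parallel. Cells treated with a compound concentration gradient for 48 hours; viability by MTT, IC50 derived.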
# [3] = tested on: MCF-7 cells transfected with BAX/BAK interfering plasmid; test: Cytotoxicity by MTT, cells transfected with BAX/BAK interfering plasmid; type: cell-based; conditions: Homo sapiens, MCF7; MCF-7 with BAX/BAK interfering plasmid, MTT, 48 hours
# How it was run: as §3
# Bcl-2 = test: Western blotting, semiquantitative analysis of Bcl-2 protein bands; type: cell-based; conditions: control = 1, tumor cells
# Method: (§4) The interest protein was detected by the corresponding antibody. The expression of the interest protein in the cells was detected by horseradish peroxidase-labeled secondary antibodies in combination with ECL coloration method. […] The concentration of the protein bands in the Western images were carried out semiquantitative analysis and normalization treatment with KODAK Gel Logic 1500 imaging system software.
# Mcl-1 = test: Western blotting, semiquantitative analysis of Mcl-1 protein bands; type: cell-based; conditions: control = 1, tumor cells
# Method: as §4
# T1 sequence (P10415 whole entry): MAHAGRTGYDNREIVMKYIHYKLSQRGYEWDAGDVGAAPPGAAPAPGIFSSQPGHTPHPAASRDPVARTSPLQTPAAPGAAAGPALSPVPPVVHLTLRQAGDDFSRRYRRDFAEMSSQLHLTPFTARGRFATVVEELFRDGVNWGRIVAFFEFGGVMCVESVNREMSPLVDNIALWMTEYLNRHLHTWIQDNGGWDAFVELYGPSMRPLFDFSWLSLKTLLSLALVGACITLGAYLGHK
# Sequence of GST-Bcl-2 protein (P10415 whole entry): as above
# Sequence of Mcl-1 protein (Q07820 whole entry, species assumed): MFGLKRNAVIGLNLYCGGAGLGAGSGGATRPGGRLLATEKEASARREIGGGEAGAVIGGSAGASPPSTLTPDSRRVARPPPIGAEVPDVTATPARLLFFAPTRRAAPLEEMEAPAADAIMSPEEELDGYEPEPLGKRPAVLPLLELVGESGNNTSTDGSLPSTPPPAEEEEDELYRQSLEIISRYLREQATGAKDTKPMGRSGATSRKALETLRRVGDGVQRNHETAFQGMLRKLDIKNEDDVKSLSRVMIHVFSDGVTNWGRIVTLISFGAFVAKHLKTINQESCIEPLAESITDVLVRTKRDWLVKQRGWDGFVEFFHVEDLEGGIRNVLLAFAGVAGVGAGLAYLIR
Ki (GST-Bcl-2 protein) [nM],Ki (Mcl-1 protein) [nM],Doses (concentration at which the compound interfered with the interaction between Bcl-2 and Bax) [1] [µM],Time (time period after which the interaction between Bcl-2 and Bax was interfered) [1] [h],melting point [°C],SMILES,Doses (concentration at which the compound drove the BAX to shift towards the chondriosome) [2] [µM],Time (time period after which BAX shifted towards the chondriosome) [2] [h],IC50 (MCF-7 cells) [nM],IC50 [3] [nM],"concentration of the protein bands (semiquantitative, normalized), Bcl-2 (Bcl-2; 6 h)","concentration of the protein bands (semiquantitative, normalized), Bcl-2 (Bcl-2; 12 h)","concentration of the protein bands (semiquantitative, normalized), Bcl-2 (Bcl-2; 18 h)","concentration of the protein bands (semiquantitative, normalized), Bcl-2 (Bcl-2; 24 h)","concentration of the protein bands (semiquantitative, normalized), Mcl-1 (Mcl-1; 2 h)","concentration of the protein bands (semiquantitative, normalized), Mcl-1 (Mcl-1; 6 h)"
158,24,0.5,4,278 to 279,"CCC(C)c1ccc(Oc2ccc3c4c(cccc24)C2=NC(=O)C(C#N)=C23)cc1 (centres unmarked) [Compound 13, 3-(4-sec-Butyl-phenoxy)-8-oxo-8H-acenaphtho[1,2-b]pyrrole-9-carbonitrile]",5.0,4,7500,> 50000,0.99,0.99,0.42,0.14,0.79,0.29
23,57,0.2,2,–,"CC(C)c1ccc(Sc2ccc3c4c(cccc24)C2=NC(=O)C(C#N)=C23)cc1 [Compound 20, 3-(4-Isopropyl-phenylsulfanyl)-8-oxo-8H-acenaphtho[1,2-b]pyrrole-9-carbonitrile]",5.0,3,2100,> 50000,0.99,0.99,0.50,0.23,0.60,0.29

# — US8614333B2, “Acenaphtho heterocyclic compound and application thereof” (Dalian University of Technology, priority 2010, dated 2013)
